In PubChem BioAssay AID504422 (Sanford-Burnham Center for Chemical Genomics, 2011):
Calls of active or inactive are those of the source. The rule behind the calls is not given here.

Tested on: human hepatocytes, lipid droplet formation imaging
Assay: inhibitors of hepatocyte lipid droplet formation, SAR follow-up, imaging, human hepatocytes (AID 504422)

Structure (SMILES) | IC50
COc1ccc(NC(=O)c2cc3ccsc3n2C)cc1OC | > 10 µM (inactive)
CCOc1ccc(CCNC(=O)CCC(=O)N2CCOc3ccccc32)cc1OCC | > 10 µM (inactive)
CCOc1ccc(CCNC(=O)CSc2cc(=O)n(C)c3ccccc23)cc1OC | > 10 µM (inactive)
CCOc1ccc(CCNC(=O)c2cc3ccccc3n2C)cc1OC | > 10 µM (inactive)
CCOc1ccc(CCNC(=O)CN2C(=O)c3cccnc3Oc3ccc(C)cc32)cc1OCC | > 10 µM (inactive)
CCOc1ccc(CCNC(=O)COC(=O)c2cc(OC)cc(OC)c2)cc1OCC | > 10 µM (inactive)
CCOc1ccc(CCNC(=O)c2cc3ccsc3n2C)cc1OCC | > 10 µM (inactive)
CCOc1ccc(CCNC(=O)Cn2ncn3nc(-c4ccc(OC)cc4)cc3c2=O)cc1OCC | > 10 µM (inactive)
CCOc1ccc(CCNC(=O)CSc2cc(=O)n(CC)c3ccccc23)cc1OCC | > 10 µM (inactive)
CCOc1ccc(CCNC(=O)COC(=O)c2ccc(OC)c(OC)c2OC)cc1OCC | > 10 µM (inactive)
CCOc1ccc(CCNC(=O)c2cc3sc(Cl)cc3n2C)cc1OCC | > 10 µM (inactive)
CCOc1ccc(CCNC(=O)CCC(=O)N2CCOc3ccc(C)cc32)cc1OCC | > 10 µM (inactive)
COc1ccc(CCNC(=O)c2cc3sccc3n2C)cc1OC | > 10 µM (inactive)
CCn1c(C(=O)NCc2cc(OC)c(OC)c(OC)c2)cc2sccc21 | > 10 µM (inactive)
CCn1c(C(=O)Nc2ccc3c(c2)OCO3)cc2ccsc21 | > 10 µM (inactive)
CCn1c(C(=O)NCc2ccc3c(c2)OCO3)cc2sccc21 | > 10 µM (inactive)
COc1cc(CNC(=O)c2cc3ccsc3n2C)cc(OC)c1OC | > 10 µM (inactive)
O=C(NCCc1ccc2c(c1)OCO2)c1cc(-c2ccccc2)c(N2CCOCC2)s1 | > 10 µM (inactive)
CCOc1cc(CCNC(=O)c2ccc(N3CCOCC3)s2)ccc1OC | > 10 µM (inactive)
CCn1c(C(=O)NCCc2ccc(OC)c(OC)c2)cc2ccsc21 | > 10 µM (inactive)
COc1ccc(CNC(=O)c2cc(-c3ccccc3)c(N3CCOCC3)s2)cc1OC | > 10 µM (inactive)
Cn1c(C(=O)NCCc2ccc3c(c2)OCO3)cc2ccccc21 | > 10 µM (inactive)
O=C(NCCc1ccc2c(c1)OCO2)c1cc2sccc2[nH]1 | > 10 µM (inactive)
CCOc1ccc(CCNC(=O)CCC(=O)N2CCSc3ccccc32)cc1OCC | > 10 µM (inactive)
COc1cc(CNC(=O)CSc2cc(=O)n(C)c3ccccc23)cc(OC)c1OC | > 10 µM (inactive)
CCOc1ccc(CCNC(=O)COC(=O)c2cc(OC)c(OC)c(OC)c2)cc1OCC | > 10 µM (inactive)

Structure (SMILES) | IC50
Cn1c(=O)cc(SCC(=O)NCCc2ccc3c(c2)OCO3)c2ccccc21 | > 10 µM (inactive)
CCn1c(C(=O)NCc2ccc(OC)c(OC)c2)cc2ccsc21 | > 10 µM (inactive)
CCOc1ccc(CCNC(=O)CSc2cc(=O)n(C)c3cc(Cl)ccc23)cc1OCC | > 10 µM (inactive)
CCOc1ccc(CCNC(=O)c2cc3ccsc3n2C)cc1OC | > 10 µM (inactive)
CCOc1ccc(CCNC(=O)CCOc2cc(C)ccc2C)cc1OCC | > 10 µM (inactive)
Cn1c(=O)cc(SCC(=O)NCc2ccc3c(c2)OCO3)c2ccccc21 | > 10 µM (inactive)
COc1ccc(CNC(=O)CSc2cc(=O)n(C)c3ccccc23)cc1OC | > 10 µM (inactive)
CCOc1ccc(CCNC(=O)CN2CCN(Cc3ccccc3C)C2=O)cc1OCC | > 10 µM (inactive)
CCOc1ccc(CCNC(=O)c2cc3sccc3n2CC)cc1OC | > 10 µM (inactive)
CCOc1cc(CCNC(=O)c2cc3ccsc3n2C)ccc1OC | > 10 µM (inactive)
COc1ccc(CCNC(=O)CSc2cc(=O)n(C)c3ccccc23)cc1OC | > 10 µM (inactive)
CCOc1ccc(CCNC(=O)Cn2nc(C)c3c(C)n(-c4ccccc4)nc3c2=O)cc1OCC | > 10 µM (inactive)
CCOc1ccc(CCNC(=O)COc2cc(=O)n(C)c3ccccc23)cc1OCC | > 10 µM (inactive)
COc1ccc(CCNC(=O)c2cc3ccccc3n2C)cc1OC | > 10 µM (inactive)
COc1ccc(CCNC(=O)Cn2cccc2C(=O)c2ccccc2C)cc1OC | > 10 µM (inactive)
CCOc1ccc(CCNC(=O)c2cc3ccsc3n2CC)cc1OCC | > 10 µM (inactive)
O=C(NCCc1ccc2c(c1)OCO2)c1ccc(N2CCOCC2)s1 | > 10 µM (inactive)
Cn1c(C(=O)NCc2ccc3c(c2)OCO3)cc2ccsc21 | > 10 µM (inactive)
COc1ccc(CCNC(=O)c2cc3sc(Cl)cc3n2C)cc1OC | > 10 µM (inactive)
COc1ccc(CNC(=O)c2ccc(N3CCOCC3)s2)cc1OC | > 10 µM (inactive)
CCOc1ccc(CCNC(=O)CSc2cc(=O)n(C)c3ccccc23)cc1OCC | > 10 µM (inactive)
COc1ccc(CCNC(=O)COC(=O)c2cc(OC)c(OC)cc2OC)cc1OC | > 10 µM (inactive)
CCOc1cc(CCNC(=O)COc2cc(=O)n(C)c3ccccc23)ccc1OC | > 10 µM (inactive)
CCn1c(C(=O)Nc2ccc(OC)c(OC)c2)cc2sccc21 | > 10 µM (inactive)
CCOc1ccc(CCNC(=O)Cn2cccc2C(=O)c2ccccc2C)cc1OCC | > 10 µM (inactive)
CCOc1ccc(CCNC(=O)c2cc3sccc3[nH]2)cc1OCC | > 10 µM (inactive)

Structure (SMILES) | IC50
CCOc1ccc(CCNC(=O)c2cc(-c3ccccc3)c(N3CCOCC3)s2)cc1OCC | > 10 µM (inactive)
CCOc1cc(CCNC(=O)c2cc3sccc3n2CC)ccc1OC | > 10 µM (inactive)
CCOc1ccc(CCNC(=O)CCc2nnc3ccc(N4CCCC4)nn23)cc1OCC | > 10 µM (inactive)
CCOc1cc(CCNC(=O)c2cc(-c3ccccc3)c(N3CCOCC3)s2)ccc1OC | > 10 µM (inactive)
CCOc1ccc(CCNC(=O)c2cc3sccc3n2C)cc1OCC | > 10 µM (inactive)
Cn1c(=O)cc(SCC(=O)Nc2ccc3c(c2)OCO3)c2ccccc21 | > 10 µM (inactive)
CCOc1ccc(CCNC(=O)CCc2nc(-c3ccc(OC)cc3)no2)cc1OCC | > 10 µM (inactive)
CCOc1ccc(CCNC(=O)Cn2cccc2C(=O)c2ccccc2)cc1OCC | > 10 µM (inactive)
CCOc1cc(CCNC(=O)c2cc3ccccc3n2C)ccc1OC | > 10 µM (inactive)
CCOc1ccc(CCNC(=O)c2nnc(Cc3ccc(F)cc3)o2)cc1OCC | > 10 µM (inactive)
Cn1c(C(=O)Nc2ccc3c(c2)OCO3)cc2ccsc21 | > 10 µM (inactive)
CCOc1cc(CCNC(=O)c2cc3sccc3[nH]2)ccc1OC | > 10 µM (inactive)
CCOc1ccc(CCNC(=O)c2cc(-c3ccccc3)c(N3CCOCC3)s2)cc1OC | > 10 µM (inactive)
CCOc1ccc(CCNC(=O)c2cc3ccsc3n2CC)cc1OC | > 10 µM (inactive)
CCOc1ccc(CCNC(=O)CCc2nnc3ccc(N4CCCCC4)nn23)cc1OCC | > 10 µM (inactive)
CCn1c(C(=O)Nc2ccc3c(c2)OCO3)cc2sccc21 | > 10 µM (inactive)
CCOc1cc(CCNC(=O)CSc2cc(=O)n(C)c3ccccc23)ccc1OC | > 10 µM (inactive)
COc1ccc(CNC(=O)c2cc3ccsc3n2C)cc1OC | > 10 µM (inactive)
CCOc1ccc(CCNC(=O)c2ccc(N3CCOCC3)s2)cc1OCC | > 10 µM (inactive)
CCn1c(C(=O)Nc2ccc(OC)c(OC)c2)cc2ccsc21 | > 10 µM (inactive)
COc1ccc(CCNC(=O)c2cc(-c3ccccc3)c(N3CCOCC3)s2)cc1OC | > 10 µM (inactive)
CCn1c(C(=O)NCCc2ccc(OC)c(OC)c2)cc2sc(Cl)cc21 | > 10 µM (inactive)
CCOc1ccc(CCNC(=O)c2cc3sccc3n2CC)cc1OCC | > 10 µM (inactive)
CCOc1ccc(CCNC(=O)C2CC=CCC2C(=O)OC(C)C)cc1OCC (stereo not drawn) | > 10 µM (inactive)
CCn1c(C(=O)NCc2cc(OC)c(OC)c(OC)c2)cc2ccsc21 | > 10 µM (inactive)
COc1ccc(CCNC(=O)c2cc(-c3ccccc3)c(N3CCOCC3)s2)c(OC)c1OC | > 10 µM (inactive)
